# Results published in patent US6218431A, “Substituted biphenyls” (Bayer Corporation, priority 1997, dated 2001).
# Target: T1, glucagon receptor (Homo sapiens, UniProt P47871)
# T1 construct: expressed in transfected cells; host or cells: Chinese Hamster Ovary cells (CHO-HGR), membranes
# Assay: glucagon receptor binding assay (125I-glucagon, CHO-HGR membranes)
# Conditions: 20 μM; reported where 20 μM did not reduce glucagon binding by 50%
# Protocol: The affinity for the glucagon receptor of compounds of the present invention is determined by the glucagon receptor binding assay. Membranes were prepared from Chinese Hamster Ovary cells expressing the glucagon receptor (CHO-HGR) by scraping the cells into hypotonic lysis buffer (10 mM Tris, pH 7.4, 2 mM EDTA, 5 mM MgCl2 and 1 mM PMSF) and subjecting the material to Polytron homogenization. Nuclei were removed by a 15-min 800×g centrifugation step conducted at 4° C. Membranes containing the receptor were collected by centrifugation at 15,000×gfor 15 min at 4° C. The membranes were washed once in lysis buffer and suspended in 0.25 M sucrose, 10 mM Tris, 5 mM EDTA, pH 7.4. The membranes were used in ligand binding studies as reported (Yoo-Warren, H., Willse, A. G., Hancock, N., Hull, J., McCaleb, M., and Livingston, J. Regulation of Rat Glucagon Receptor Expression. Biochem. Biophysical Res. Commun. 1994, 205, 347-353). In brief, 10 ug of membrane protein was incubated in 130 μl of binding buffer that consisted of 20 mM Tris, […], 1 mM EDTA, 1 mg/ml BSA, and 1 mg/ml bacitracin. The membrane suspension was placed in each well of a 96-well filtration plate (glass fiber type C, Millipore). […] Following the addition of test compound, 50 μl of ^125 I-glucagon (9 fmol) (NEN) was added to each well. Control wells contained membranes, 0.5% DMSO (solvent for test compounds), radiolabeled glucagon without and with excess native glucagon (1 μM) to establish nonspecific binding. The plates were incubated for 60 min at room temperature, and then filtered on a Mllipore vacuum apparatus. Following a wash step with ice-cold PBS/0.1% BSA, the filters were punched into test tubes, and the membrane bound radioactivity was determined.
# T1 sequence (P47871 26-477): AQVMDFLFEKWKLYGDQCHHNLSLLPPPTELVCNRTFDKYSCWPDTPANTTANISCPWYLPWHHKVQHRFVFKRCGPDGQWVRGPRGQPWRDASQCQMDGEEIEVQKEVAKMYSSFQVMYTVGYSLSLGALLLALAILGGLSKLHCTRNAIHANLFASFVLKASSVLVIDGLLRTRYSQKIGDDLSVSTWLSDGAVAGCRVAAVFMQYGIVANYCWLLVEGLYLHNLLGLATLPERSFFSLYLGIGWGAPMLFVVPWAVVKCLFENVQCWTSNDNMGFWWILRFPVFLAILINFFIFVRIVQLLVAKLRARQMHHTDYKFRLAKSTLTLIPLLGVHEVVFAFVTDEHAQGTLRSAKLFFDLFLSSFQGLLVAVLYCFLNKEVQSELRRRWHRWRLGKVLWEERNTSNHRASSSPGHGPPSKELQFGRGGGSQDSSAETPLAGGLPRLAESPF
row,SMILES,inhibition at 20 µM
1,"CC(C)c1nc(C(C)C)c(CSc2ccc(O)cc2)c(-c2ccc(F)cc2)c1CO [Example 55, 2,6-Diisopropyl-3-hydroxymethyl-4-(4-fluorophenyl)-5-[(4-hydroxy-phenyl)thio]methylpyridine]",15.7%

# Same assay, conditions: 125I-glucagon; 60 min at room temperature; read-out: IC50
row,SMILES,IC50
1,CC(C)c1nc(C(C)C)c(CCCC2OCCO2)c(-c2ccc(F)cc2)c1CO [Example 46],9000 nM
2,"CC(C)c1nc(C(C)C)c(CSc2cccc(C(F)(F)F)c2)c(-c2ccc(F)cc2)c1CO [Example 48, 2,6-Diisopropyl-3-hydroxymethyl-4-(4-fluorophenyl)-5-[((3-trifluoro-methyl)phenyl)thio]methylpyridine]",1800 nM
3,"CC(C)c1nc(C(C)C)c(CSc2cccc3ccccc23)c(-c2ccc(F)cc2)c1CO [Example 51, 2,6-Diisopropyl-3-hydroxymethyl-4-(4-fluorophenyl)-5-(1-naphthylthio)-methylpyridine]",16000 nM
4,"CC(C)c1nc(C(C)C)c(CSc2ccc3ccccc3c2)c(-c2ccc(F)cc2)c1CO [Example 52, 2,6Diisopropyl-3hydroxymethyl-4-(4-fluorophenyl)-5-(2-naphthyl-thio)methlpyridine]",20000 nM
5,"CC(C)c1nc(C(C)C)c(CSc2c(F)c(F)cc(F)c2F)c(-c2ccc(F)cc2)c1CO [Example 53, 2,6-Diisopropyl-3-hydroxymethyl-4-(4-fluorophenyl)-5-[(2,3,5,6-tetra-fluorophenyl)thio]methylpyridine]",4900 nM
6,"COc1cccc(SCc2c(C(C)C)nc(C(C)C)c(CO)c2-c2ccc(F)cc2)c1 [Example 54, 2,6-Diisopropyl-3-hydroxymethyl-4-(4-fluorophenyl)-5-[(3-methyoxy-phenyl)thio]methylpyridine]",1800 nM
7,"COc1ccc(SCc2c(C(C)C)nc(C(C)C)c(CO)c2-c2ccc(F)cc2)cc1 [Example 56, 2,6-Diisopropyl-3-hydroxymethyl-4-(4-fluorophenyl)-5-[(4-methoxy-phenyl)thio]methylpyridine]",1900 nM

# Further lines, results first:
row,IC50,SMILES
1,1800 nM,"Cc1ccccc1CCc1c(C(C)C)nc(C(C)C)c(CO)c1-c1ccc(F)cc1 [Example 43, 2,6-Diisopropyl-3-hydroxymethyl-4-(4-fluorophenyl)-5-[2-(2-methyl-phenyl)ethyl]pyridine]"
2,1500 nM,"CC(C)c1nc(C(C)C)c(CSc2ccccc2)c(-c2ccc(F)cc2)c1CO [Example 47, 2,6Diisopropyl-3-hydroxymethyl-4-(4fluorophenyl)-5[(phenylthio)-methyl]pyridine]"
3,1500 nM,"Cc1ccccc1SCc1c(C(C)C)nc(C(C)C)c(CO)c1-c1ccc(F)cc1 [Example 58, 2,6Diisopropyl-3-hydroxymethyl-4-(4-fluorophenyl)-5-[(2-methyl-phenyl)thio]methylpyridine]"
4,1100 nM,"Cc1ccc(CCc2c(C(C)C)nc(C(C)C)c(CO)c2-c2ccc(F)cc2)cc1 [Example 45, 2,6-Diisopropyl-3-hydroxyl methyl-4-(4-fluorophenyl)-5-[2-(4-methyl-phenyl)ethyl]pyridine]"
5,1100 nM,"CC(C)c1nc(C(C)C)c(CSc2ccc(F)cc2)c(-c2ccc(F)cc2)c1CO [Example 49, 2,6-Diisopropyl-3-hydroxymethyl-4-(4-fluorophenyl)-5-[(4-fluoro-phenyl)thio]methylpyridine]"
6,1100 nM,"Cc1cccc(SCc2c(C(C)C)nc(C(C)C)c(CO)c2-c2ccc(F)cc2)c1 [Example 57, 2,6-Diisopropyl-3-hydroxymethyl-4-(4-fluorophenyl)-5-[(3-methyl-phenyl)thio]methylpyridine]"
7,1000 nM,"Cc1cccc(CCc2c(C(C)C)nc(C(C)C)c(CO)c2-c2ccc(F)cc2)c1 [Example 44, 2,6-Diisopropyl-3-hydroxymethyl-4-(4-fluorophenyl)-5-[2-(3-methyl-phenyl)ethyl]pyridine]"
8,900 nM,"Cc1ccc(SCc2c(C(C)C)nc(C(C)C)c(CO)c2-c2ccc(F)cc2)cc1 [Example 50, 2,6-Diisopropyl-3-hydroxymethyl-4-(4-fluorophenyl)-5-[((4-methyl)-phenyl)thio]methylpyridine]"
